{"source": "patent EP1175417B1", "about": "“SUBSTITUTED BENZOLACTAM COMPOUNDS” (Pfizer Products Inc., priority 1999, dated 2000)", "key": {"gerbils": {"tested_on": "gerbils", "test": "[Sar^9, Met(O2)^11]substance P-induced tapping test", "format": "in vivo", "details": "Meriones unguiculatus, at 0.3mg/kg scoring", "method": "More specifically, gerbils are lightly anesthetized with ether and the skull surface is exposed. […] Following injection, gerbils are placed in 1 L beaker individually and monitored for repetitive hind paw tapping. Some compounds prepared in the following Examples were tested in accordance with these testing methods."}, "Ca^2+ channel": {"target": "T1, Ca^2+ channel (Rattus norvegicus, UniProt P22002)", "T1 construct": "from tissue; host or cells: rat heart membrane preparation", "T1 sequence (P22002 whole entry, other chains not shown)": "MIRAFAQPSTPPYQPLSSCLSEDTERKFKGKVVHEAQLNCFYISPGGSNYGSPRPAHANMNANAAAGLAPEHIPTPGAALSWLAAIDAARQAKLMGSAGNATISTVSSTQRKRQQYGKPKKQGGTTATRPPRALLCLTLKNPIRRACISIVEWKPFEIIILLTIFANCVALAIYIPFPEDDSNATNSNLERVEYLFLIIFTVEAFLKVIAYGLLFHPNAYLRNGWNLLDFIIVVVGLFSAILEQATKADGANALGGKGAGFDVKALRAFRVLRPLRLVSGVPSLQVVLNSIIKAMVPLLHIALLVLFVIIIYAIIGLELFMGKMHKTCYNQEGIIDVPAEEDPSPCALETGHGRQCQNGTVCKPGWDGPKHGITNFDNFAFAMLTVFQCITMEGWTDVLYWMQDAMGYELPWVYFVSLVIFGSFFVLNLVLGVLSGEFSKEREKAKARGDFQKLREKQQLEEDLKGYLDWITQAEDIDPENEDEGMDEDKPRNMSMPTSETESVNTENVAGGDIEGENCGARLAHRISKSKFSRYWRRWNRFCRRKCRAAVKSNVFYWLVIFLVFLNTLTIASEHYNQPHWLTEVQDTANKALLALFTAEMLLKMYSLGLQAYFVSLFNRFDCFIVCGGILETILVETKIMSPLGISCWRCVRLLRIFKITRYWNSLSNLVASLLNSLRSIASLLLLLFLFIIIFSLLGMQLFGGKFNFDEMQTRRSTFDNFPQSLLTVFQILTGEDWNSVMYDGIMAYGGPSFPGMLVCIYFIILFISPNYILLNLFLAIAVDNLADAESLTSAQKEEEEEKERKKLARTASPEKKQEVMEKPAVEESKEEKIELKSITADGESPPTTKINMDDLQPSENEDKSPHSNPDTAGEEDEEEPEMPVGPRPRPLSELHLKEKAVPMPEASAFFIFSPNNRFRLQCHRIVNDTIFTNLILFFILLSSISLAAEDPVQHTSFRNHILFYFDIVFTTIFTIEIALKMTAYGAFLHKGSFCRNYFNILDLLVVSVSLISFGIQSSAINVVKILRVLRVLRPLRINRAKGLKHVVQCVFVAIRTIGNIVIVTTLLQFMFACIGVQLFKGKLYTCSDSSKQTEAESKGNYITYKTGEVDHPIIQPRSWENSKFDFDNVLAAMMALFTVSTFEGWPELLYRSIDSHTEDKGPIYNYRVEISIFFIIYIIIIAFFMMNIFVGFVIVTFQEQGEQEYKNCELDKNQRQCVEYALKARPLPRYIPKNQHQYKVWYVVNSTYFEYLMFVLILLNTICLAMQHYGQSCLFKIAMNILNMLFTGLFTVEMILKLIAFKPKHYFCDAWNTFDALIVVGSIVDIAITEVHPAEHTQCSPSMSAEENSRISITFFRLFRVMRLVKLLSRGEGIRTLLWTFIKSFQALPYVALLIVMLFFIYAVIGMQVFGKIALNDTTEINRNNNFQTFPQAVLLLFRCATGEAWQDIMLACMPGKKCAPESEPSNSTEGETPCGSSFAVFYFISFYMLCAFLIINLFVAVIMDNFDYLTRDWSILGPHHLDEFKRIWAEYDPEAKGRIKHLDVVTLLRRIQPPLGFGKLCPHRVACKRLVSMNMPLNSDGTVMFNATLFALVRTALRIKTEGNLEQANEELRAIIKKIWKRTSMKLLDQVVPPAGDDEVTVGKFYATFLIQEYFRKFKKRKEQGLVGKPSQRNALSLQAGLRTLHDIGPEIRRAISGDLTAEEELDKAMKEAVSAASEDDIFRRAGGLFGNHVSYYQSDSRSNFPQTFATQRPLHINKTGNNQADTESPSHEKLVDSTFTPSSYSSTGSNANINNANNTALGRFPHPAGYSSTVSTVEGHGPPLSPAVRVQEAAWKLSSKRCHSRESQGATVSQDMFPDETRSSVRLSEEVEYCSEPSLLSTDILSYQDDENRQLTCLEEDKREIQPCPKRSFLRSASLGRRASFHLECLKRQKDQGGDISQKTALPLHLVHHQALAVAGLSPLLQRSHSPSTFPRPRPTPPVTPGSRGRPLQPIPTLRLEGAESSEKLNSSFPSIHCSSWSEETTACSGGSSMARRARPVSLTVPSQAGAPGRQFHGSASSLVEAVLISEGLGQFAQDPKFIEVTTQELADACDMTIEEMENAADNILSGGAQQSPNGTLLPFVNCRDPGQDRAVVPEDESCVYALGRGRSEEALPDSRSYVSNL", "T1 sequence (P54290 25-944 partner limits assumed, other chains not shown)": "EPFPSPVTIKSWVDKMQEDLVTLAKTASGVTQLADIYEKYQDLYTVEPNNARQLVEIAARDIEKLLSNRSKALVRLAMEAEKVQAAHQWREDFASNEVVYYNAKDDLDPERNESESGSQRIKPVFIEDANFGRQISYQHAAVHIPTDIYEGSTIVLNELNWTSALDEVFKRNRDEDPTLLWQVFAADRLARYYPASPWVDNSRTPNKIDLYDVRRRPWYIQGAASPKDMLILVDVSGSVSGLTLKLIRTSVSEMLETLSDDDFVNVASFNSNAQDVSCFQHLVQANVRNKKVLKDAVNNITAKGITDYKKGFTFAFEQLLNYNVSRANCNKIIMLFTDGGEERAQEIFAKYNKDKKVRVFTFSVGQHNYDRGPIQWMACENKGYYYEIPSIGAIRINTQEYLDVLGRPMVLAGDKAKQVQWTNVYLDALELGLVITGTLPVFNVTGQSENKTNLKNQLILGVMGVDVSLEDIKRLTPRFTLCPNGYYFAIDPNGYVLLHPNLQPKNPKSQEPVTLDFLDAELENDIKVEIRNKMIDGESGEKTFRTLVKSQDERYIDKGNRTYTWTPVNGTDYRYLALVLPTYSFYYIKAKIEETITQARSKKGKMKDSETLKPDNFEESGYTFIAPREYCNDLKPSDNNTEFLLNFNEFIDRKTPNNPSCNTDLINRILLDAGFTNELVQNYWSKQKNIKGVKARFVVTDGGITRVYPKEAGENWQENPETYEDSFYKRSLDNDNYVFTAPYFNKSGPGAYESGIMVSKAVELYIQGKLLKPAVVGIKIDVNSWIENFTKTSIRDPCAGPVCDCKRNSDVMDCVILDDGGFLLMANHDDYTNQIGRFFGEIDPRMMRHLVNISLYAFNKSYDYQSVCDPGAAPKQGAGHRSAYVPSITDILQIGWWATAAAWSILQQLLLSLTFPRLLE", "T1 sequence (P54290 945-1091 partner limits assumed, other chains not shown)": "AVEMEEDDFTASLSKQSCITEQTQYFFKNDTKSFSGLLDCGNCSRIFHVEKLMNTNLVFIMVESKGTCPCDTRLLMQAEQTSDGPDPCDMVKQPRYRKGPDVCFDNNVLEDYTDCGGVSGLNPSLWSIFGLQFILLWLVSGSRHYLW", "test": "verapamil binding study in rat heart membrane preparation", "details": "[^3H]desmethoxyverapamil binding", "method": "The adverse effect on Ca^2+ channel binding affinity is determined by verapamil binding study in rat heart membrane preparation. More specifically, verapamil binding study is performed as previously described by Reynolds et al, J. Pharmacol. Exp. Ther., 237, 731 (1986). Briefly, incubations are initiated by the addition of tissue to tubes containing 0.25 nM [^3H]desmethoxyverapamil and various concentrations of compounds (total volume 1 ml). Nonspecific binding is defined as radioligand binding remaining in the presence of 3-10 µM methoxyverapamil."}, "[1]": {"target": "T2, substance P receptor sites in IM-9 cells (Homo sapiens, UniProt P25103)", "T2 construct": "endogenous in cells; host or cells: human IM-9 cells", "T2 sequence (P25103 whole entry)": "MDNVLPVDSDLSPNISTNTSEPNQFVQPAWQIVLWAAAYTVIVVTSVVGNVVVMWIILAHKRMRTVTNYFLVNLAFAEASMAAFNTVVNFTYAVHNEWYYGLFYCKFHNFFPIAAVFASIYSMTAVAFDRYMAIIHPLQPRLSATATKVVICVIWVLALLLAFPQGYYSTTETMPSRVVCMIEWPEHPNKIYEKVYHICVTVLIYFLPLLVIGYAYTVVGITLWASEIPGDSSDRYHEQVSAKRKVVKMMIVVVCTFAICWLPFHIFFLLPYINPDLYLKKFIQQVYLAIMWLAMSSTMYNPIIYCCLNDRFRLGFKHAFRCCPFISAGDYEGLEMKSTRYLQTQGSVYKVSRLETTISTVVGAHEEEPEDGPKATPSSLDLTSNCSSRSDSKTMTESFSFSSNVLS", "test": "IM-9 binding assay (inhibition of [^3H]SP binding)", "details": "inhibition of [^3H]SP binding to human IM-9 cells", "method": "The activity of the compounds of the present invention, as substance P antagonists, is determined by their ability to inhibit the binding of substance P at its receptor sites in IM-9 cells employing radioactive ligands. The substance P antagonist activity of the herein described compounds is evaluated by using the standard assay procedure described by D. G. Payan et al as reported in J. Immunology, 133, 3260 (1984). This method essentially involves determining the concentration of the individual compound required to reduce by 50% the amount of radiolabeled substance P ligands at their receptor sites in said isolated cow tissues or IM-9 cells, thereby affording characteristic IC50 values for each compound tested. More specifically, inhibition of [^3H]SP binding to human IM-9 cells by compounds are determined in assay buffer (50 mM Tris-HCl (pH 7.4), 1 mM MnCl2, 0.02 % bovine serum albumin, bacitracin (40 µg/ml), leupeptin (4 µg/ml), chymostatin (2 µg/ml) and phosphoramidon (30 µg/ml)). The reaction is initiated by the addition of cells to assay buffer containing 0.56 nM [^3H]SP and various concentrations of compounds (total volume; 0.5 ml) and allowed to incubate for 120 min at 4 °C. […] Nonspecific binding is defined as the radioactivity remaining in the presence of 1 µM SP. The filters are placed into tubes and counted using liquid scintillation counter."}}, "note": "Structures can show the parent of a compound that is named as a salt.", "data": [{"smiles": "COc1cc2c(cc1CN[C@H]1CCCN[C@H]1c1ccccc1)N(C)C(=O)CC2", "note": "[Compound 21, (2S,3S)-3-(6-Methoxy-1-methyl-2-oxo-1,2,3,4-tetrahydroquinolin-7-yl)methylamino-2-phenylpiperidine dihydrochloride]", "values": [{"measurement": "inhibition at 0.3 mg/kg", "setting": "gerbils", "result": 52, "unit": "%"}, {"measurement": "IC50", "setting": "Ca^2+ channel", "result": "> 3000", "unit": "nM"}, {"measurement": "IC50", "setting": "[1]", "result": "< 0.1", "unit": "nM"}]}]}
